Assays:
Type in all cases: cell-based
[1] = molecular target: GABA-A receptor; alpha-1/beta-2/gamma-2 (Homo sapiens) (UniProt P14867+P47870+P18507); assay: Agonist activity at recombinant human GABA-A alpha1beta2gamma2S receptor transiently expressed in human tsA201 cells assessed as GABA-induced maximum response incubated for 30 mins and measured up to 90 secs by FMP dye based FLIPR membrane potential blue assay relative to GABA
Homo sapiens = species on record: Homo sapiens; assay: Agonist activity at recombinant human GABA-A alpha3beta2gamma2S receptor transiently expressed in human tsA201 cells assessed as GABA-induced maximum response incubated for 30 mins and measured up to 90 secs by FMP dye based FLIPR membrane potential blue assay relative to GABA
[2] = molecular target: Gamma-aminobutyric acid receptor subunit alpha-4/beta-2/gamma-2 (Homo sapiens, UniProt P47870+P18507+P48169); assay: Agonist activity at recombinant human GABA-A alpha4beta2gamma2S receptor transiently expressed in human tsA201 cells assessed as GABA-induced maximum response incubated for 30 mins and measured up to 90 secs by FMP dye based FLIPR membrane potential blue assay relative to GABA
[3] = molecular target: Gamma-aminobutyric acid receptor subunit alpha-5/beta-2/gamma-2 (Homo sapiens) (UniProt P47870+P18507+P31644); assay: Agonist activity at recombinant human GABA-A alpha5beta2gamma2S receptor transiently expressed in human tsA201 cells assessed as GABA-induced maximum response incubated for 30 mins and measured up to 90 secs by FMP dye based FLIPR membrane potential blue assay relative to GABA
[4] = molecular target: Gamma-aminobutyric acid receptor subunit rho-1 (Homo sapiens, UniProt P24046); assay: Agonist activity at recombinant human GABA-A rho-1 receptor transiently expressed in human tsA201 cells assessed as GABA-induced maximum response incubated for 30 mins and measured up to 90 secs by FMP dye based FLIPR membrane potential blue assay relative to GABA
Sequence of Gamma-aminobutyric acid receptor subunit rho-1 (P24046 whole entry): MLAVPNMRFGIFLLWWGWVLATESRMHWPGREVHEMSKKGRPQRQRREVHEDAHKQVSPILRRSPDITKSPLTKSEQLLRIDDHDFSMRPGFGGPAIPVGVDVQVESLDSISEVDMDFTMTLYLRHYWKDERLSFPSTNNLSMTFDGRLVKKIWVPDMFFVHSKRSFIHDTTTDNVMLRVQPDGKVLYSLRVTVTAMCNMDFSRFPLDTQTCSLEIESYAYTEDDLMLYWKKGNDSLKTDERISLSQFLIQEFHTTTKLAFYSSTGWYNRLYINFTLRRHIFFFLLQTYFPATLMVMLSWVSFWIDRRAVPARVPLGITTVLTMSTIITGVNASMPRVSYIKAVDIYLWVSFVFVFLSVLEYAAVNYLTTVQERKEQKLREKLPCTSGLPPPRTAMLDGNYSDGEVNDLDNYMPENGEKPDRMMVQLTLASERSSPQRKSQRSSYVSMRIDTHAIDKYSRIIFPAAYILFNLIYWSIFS

[5] = molecular target: Sodium- and chloride-dependent GABA transporter 1 (Homo sapiens, UniProt P30531); assay: Inhibition of human GAT1 expressed in Flp-In CHO cells assessed as reduction in [3H]GABA uptake at 100 uM incubated for 3 mins by liquid scintillation counting method relative to control
Sequence of Sodium- and chloride-dependent GABA transporter 1 (P30531 whole entry, looked up): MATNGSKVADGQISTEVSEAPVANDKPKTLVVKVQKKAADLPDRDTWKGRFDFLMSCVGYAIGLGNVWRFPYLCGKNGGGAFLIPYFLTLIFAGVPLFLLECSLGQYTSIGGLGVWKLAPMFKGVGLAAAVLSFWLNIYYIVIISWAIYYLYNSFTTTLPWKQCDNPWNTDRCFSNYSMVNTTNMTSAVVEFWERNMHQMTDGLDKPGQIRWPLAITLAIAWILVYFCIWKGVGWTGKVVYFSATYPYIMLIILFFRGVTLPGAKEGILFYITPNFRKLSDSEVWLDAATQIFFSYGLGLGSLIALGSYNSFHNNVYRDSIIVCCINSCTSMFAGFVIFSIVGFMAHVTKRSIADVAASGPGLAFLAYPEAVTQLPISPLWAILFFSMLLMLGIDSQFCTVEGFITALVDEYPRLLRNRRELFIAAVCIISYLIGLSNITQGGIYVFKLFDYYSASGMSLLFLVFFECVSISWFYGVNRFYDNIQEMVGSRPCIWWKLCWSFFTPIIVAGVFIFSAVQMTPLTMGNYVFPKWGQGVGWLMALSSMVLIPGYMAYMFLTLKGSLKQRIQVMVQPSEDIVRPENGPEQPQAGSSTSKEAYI

[6] = molecular target: T1, Sodium- and chloride-dependent GABA transporter 2 (Homo sapiens) (UniProt Q9NSD5); assay: Inhibition of human GAT2 expressed in Flp-In CHO cells assessed as reduction in [3H]GABA uptake at 100 uM incubated for 3 mins by liquid scintillation counting method relative to control
T1 sequence (whole entry): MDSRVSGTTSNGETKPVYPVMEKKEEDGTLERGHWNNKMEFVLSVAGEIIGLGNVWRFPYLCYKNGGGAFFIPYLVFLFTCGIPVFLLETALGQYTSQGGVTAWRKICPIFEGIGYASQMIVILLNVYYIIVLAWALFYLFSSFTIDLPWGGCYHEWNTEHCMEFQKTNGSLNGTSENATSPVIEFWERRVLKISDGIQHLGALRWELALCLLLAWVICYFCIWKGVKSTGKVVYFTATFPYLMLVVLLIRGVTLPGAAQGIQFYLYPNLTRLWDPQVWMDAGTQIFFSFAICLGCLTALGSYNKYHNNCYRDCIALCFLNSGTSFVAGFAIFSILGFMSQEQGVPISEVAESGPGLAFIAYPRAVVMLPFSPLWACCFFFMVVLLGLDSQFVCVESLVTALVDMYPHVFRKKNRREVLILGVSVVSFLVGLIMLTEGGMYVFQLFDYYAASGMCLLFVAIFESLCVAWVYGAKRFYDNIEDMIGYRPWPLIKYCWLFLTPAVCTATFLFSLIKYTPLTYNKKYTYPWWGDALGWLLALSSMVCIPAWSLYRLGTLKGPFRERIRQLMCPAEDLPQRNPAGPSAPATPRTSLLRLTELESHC

[7] = molecular target: T2, Sodium- and chloride-dependent GABA transporter 3 (Homo sapiens) (UniProt P48066); assay: Inhibition of human GAT3 expressed in Flp-In CHO cells assessed as reduction in [3H]GABA uptake at 100 uM incubated for 3 mins by liquid scintillation counting method relative to control
T2 sequence (whole entry): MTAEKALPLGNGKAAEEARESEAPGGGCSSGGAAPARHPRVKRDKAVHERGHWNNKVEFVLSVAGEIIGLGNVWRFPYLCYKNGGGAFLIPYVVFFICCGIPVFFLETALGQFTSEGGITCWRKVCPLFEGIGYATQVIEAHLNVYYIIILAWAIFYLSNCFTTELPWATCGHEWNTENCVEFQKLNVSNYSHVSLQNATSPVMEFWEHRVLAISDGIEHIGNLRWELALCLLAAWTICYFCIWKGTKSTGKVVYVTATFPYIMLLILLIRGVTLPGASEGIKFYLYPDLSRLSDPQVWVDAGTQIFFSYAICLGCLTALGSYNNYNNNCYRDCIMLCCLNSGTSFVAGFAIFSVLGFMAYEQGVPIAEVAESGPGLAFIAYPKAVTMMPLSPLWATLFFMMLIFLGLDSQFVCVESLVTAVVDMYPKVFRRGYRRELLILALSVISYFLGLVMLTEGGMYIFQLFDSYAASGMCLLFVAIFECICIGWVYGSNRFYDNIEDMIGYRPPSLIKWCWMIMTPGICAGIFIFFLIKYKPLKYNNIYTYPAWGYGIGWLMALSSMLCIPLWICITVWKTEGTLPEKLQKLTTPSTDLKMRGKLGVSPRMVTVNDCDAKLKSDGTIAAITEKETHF

[8] = molecular target: T3, Sodium- and chloride-dependent betaine transporter (Homo sapiens) (UniProt P48065); assay: Inhibition of human BGT1 expressed in Flp-In CHO cells assessed as reduction in [3H]GABA uptake at 100 uM incubated for 3 mins by liquid scintillation counting method relative to control
T3 sequence (whole entry): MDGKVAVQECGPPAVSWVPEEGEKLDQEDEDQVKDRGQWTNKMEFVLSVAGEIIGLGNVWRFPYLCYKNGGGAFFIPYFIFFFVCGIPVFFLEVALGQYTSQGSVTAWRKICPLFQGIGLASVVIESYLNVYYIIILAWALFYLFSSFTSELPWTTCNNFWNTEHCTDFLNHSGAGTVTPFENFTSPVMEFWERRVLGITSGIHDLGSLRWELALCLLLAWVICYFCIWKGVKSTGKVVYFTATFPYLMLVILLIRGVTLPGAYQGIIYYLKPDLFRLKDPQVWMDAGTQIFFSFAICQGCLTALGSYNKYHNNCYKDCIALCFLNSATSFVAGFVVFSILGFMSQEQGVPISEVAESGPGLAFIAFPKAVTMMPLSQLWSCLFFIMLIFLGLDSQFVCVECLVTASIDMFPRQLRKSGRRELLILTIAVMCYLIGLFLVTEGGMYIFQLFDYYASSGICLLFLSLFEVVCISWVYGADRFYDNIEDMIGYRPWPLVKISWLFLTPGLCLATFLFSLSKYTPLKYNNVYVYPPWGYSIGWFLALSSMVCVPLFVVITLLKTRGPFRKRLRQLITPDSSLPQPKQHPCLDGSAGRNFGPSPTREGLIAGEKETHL

[9] = molecular target: T4, Sodium- and chloride-dependent GABA transporter 2 (Homo sapiens, UniProt Q9NSD5); assay: Inhibition of human GAT2 expressed in Flp-In CHO cells assessed as reduction in [3H]GABA uptake incubated for 3 mins by liquid scintillation counting method
T4 sequence (Q9NSD5 whole entry): T1 sequence (whole entry)

[10] = molecular target: T5, Sodium- and chloride-dependent GABA transporter 3 (Homo sapiens, UniProt P48066); assay: Inhibition of human GAT3 expressed in Flp-In CHO cells assessed as reduction in [3H]GABA uptake incubated for 3 mins by liquid scintillation counting method; settings: read-out: IC50
T5 sequence (P48066 whole entry): T2 sequence (whole entry)

Compound | Rmax [1] [%] | Rmax (Homo sapiens) [%] | Rmax [2] [%] | Rmax [3] [%] | Rmax [4] [%] | inhibition [5] [%] | inhibition [6] [%] | inhibition [7] [%] | inhibition [8] [%] | IC50 [9] [µM] | IC50 [10] [µM]
CC(C(=O)O)C1CSC(N)=N1 (stereo in doubt; l-10a) | 69 | 83 | 32 | 97 | 63 | > 30 | > 30 | > 30 | > 30 | – | –
NCCCC(=O)O [GAMMA-AMINOBUTYRIC ACID] | 100 | – | – | – | – | – | – | – | – | 26 | 11

Source: ChEMBL document CHEMBL4396887, “Five-Membered N-Heterocyclic Scaffolds as Novel Amino Bioisosteres at γ-Aminobutyric Acid (GABA) Type A Receptors and GABA Transporters” (J Med Chem, 2019)
